Measurements: ChEMBL document CHEMBL6071176, “Development of Phloroglucinol-Linked Tris-Quaternary Ammonium Salt Antimicrobial Peptide Mimics with Low Cytotoxicity and Broad-Spectrum Antibacterial Activity” (J Med Chem, 2024)
In brackets after ≈: the same amount, converted by molar mass.

Key:
[1] = Cytotoxicity against human Gastric mucosal cells measured after 24 hrs by CCK-8 assay; assay type: toxicity, cell-based, Gastric mucosal cell
[2] = test system: Stenotrophomonas maltophilia; test: Antimicrobial activity against Stenotrophomonas maltophilia assessed as inhibition of growth incubated for 18 hrs by CLSI guidelines based assay; assay type: functional
[3] = test system: Escherichia coli; test: Antimicrobial activity against Escherichia coli assessed as inhibition of growth incubated for 18 hrs by CLSI guidelines based assay; assay type: functional
[4] = test system: Staphylococcus aureus; test: Antimicrobial activity against Staphylococcus aureus assessed as inhibition of growth incubated for 18 hrs by CLSI guidelines based assay; assay type: functional
[5] = Hemolytic activity in sheep red blood cells measured after 1 hr incubation; assay type: toxicity, cell-based, Ovis aries, Erythrocyte
[6] = test system: Enterococcus faecalis; test: Antimicrobial activity against Enterococcus faecalis assessed as inhibition of growth incubated for 18 hrs by CLSI guidelines based assay; assay type: functional
[7] = Selectivity index, ratio of HC50 for sheep red blood cells to MIC for Staphylococcus aureus; assay type: toxicity, cell-based, RBC; settings: read-out: Selectivity Index

Row | SMILES | CC50 at 24 h [1] | MIC [2] | MIC [3] | MIC [4] | HC50 at 1 h [5] | MIC [6] | selectivity ratio [7]
1 | CCCCCCCCCCCC[N+](C)(C)CCOc1ccccc1 [DOMIPHEN] | 74.5 µg/mL |  |  |  |  |  | 
2 | CCCC[N+](C)(C)CCCCCOc1cc(OCCCCC[N+](C)(C)CCCC)cc(OCCCCC[N+](C)(C)CCCC)c1.[Br-].[Br-].[Br-] |  | 128 µg/mL | 32 µg/mL | 64 µg/mL | > 1280 µg/mL | 128 µg/mL | > 20
3 | CCCCCCCCCCCC[N+](C)(C)CCCCCOc1cc(OCCCCC[N+](C)(C)CCCCCCCCCCCC)cc(OCCCCC[N+](C)(C)CCCCCCCCCCCC)c1.[Br-].[Br-].[Br-] |  | 64 µg/mL | 64 µg/mL | 16 µg/mL | 12 µg/mL | 2 µg/mL | 0.75
4 | CCCC[N+](C)(C)CCCCOc1cc(OCCCC[N+](C)(C)CCCC)cc(OCCCC[N+](C)(C)CCCC)c1.[Br-].[Br-].[Br-] |  | 128 µg/mL | 128 µg/mL | 128 µg/mL | > 1280 µg/mL | 128 µg/mL | > 10
5 | CCCCCCCCCCCC[N+](C)(C)CCCCOc1cc(OCCCC[N+](C)(C)CCCCCCCCCCCC)cc(OCCCC[N+](C)(C)CCCCCCCCCCCC)c1.[Br-].[Br-].[Br-] |  | 32 µg/mL | 8 µg/mL | 8 µg/mL | 11 µg/mL | 4 µg/mL | 1.38
6 | CCCCCCCC[N+](C)(C)CCCCOc1cccc(OCCCC[N+](C)(C)CCCCCCCC)c1OCCCC[N+](C)(C)CCCCCCCC.[Br-].[Br-].[Br-] |  | 1 µg/mL | 2 µg/mL | 1 µg/mL | 847 µg/mL | 1 µg/mL | 847
7 | C[N+](C)(CCCCOc1cc(OCCCC[N+](C)(C)CCCCc2ccccc2)cc(OCCCC[N+](C)(C)CCCCc2ccccc2)c1)CCCCc1ccccc1.[Br-].[Br-].[Br-] |  | 32 µg/mL | 64 µg/mL | 2 µg/mL | > 1280 µg/mL | 4 µg/mL | > 640
8 | CCCCCCCC[N+](C)(C)CCCCOc1ccc(OCCCC[N+](C)(C)CCCCCCCC)c(OCCCC[N+](C)(C)CCCCCCCC)c1.[Br-].[Br-].[Br-] |  | 1 µg/mL | 2 µg/mL | 0.5 µg/mL | > 1280 µg/mL | 0.5 µg/mL | > 2560
9 | C[N+](C)(CCCOc1ccccc1)CCCOc1cc(OCCC[N+](C)(C)CCCOc2ccccc2)cc(OCCC[N+](C)(C)CCCOc2ccccc2)c1.[Br-].[Br-].[Br-] |  | > 128 µg/mL | > 128 µg/mL | 32 µg/mL | > 1280 µg/mL | 64 µg/mL | > 40
10 | CCCCCCCCCCCC[N+](C)(C)CCCOc1cc(OCCC[N+](C)(C)CCCCCCCCCCCC)cc(OCCC[N+](C)(C)CCCCCCCCCCCC)c1.[Br-].[Br-].[Br-] |  | 32 µg/mL | 32 µg/mL | 8 µg/mL | 10 µg/mL | 4 µg/mL | 1.25
11 | C[C@@H](O)[C@H]1C(=O)N2C(C(=O)O)=C(S[C@@H]3CN[C@H](C(=O)N(C)C)C3)[C@H](C)[C@H]12 [MEROPENEM] |  | 1 µg/mL (≈ 2.61 µM) | 1 µg/mL (≈ 2.61 µM) | 0.5 µg/mL (≈ 1.3 µM) | 1220 µg/mL | 2 µg/mL (≈ 5.22 µM) | 2440
12 | CCCCCC[N+](C)(C)CCCCOc1cc(OCCCC[N+](C)(C)CCCCCC)cc(OCCCC[N+](C)(C)CCCCCC)c1.[Br-].[Br-].[Br-] |  | 128 µg/mL | 128 µg/mL | 32 µg/mL | > 1280 µg/mL | 8 µg/mL | > 40
13 | C[N+](C)(CCCOc1cc(OCCC[N+](C)(C)CCCc2ccccc2)cc(OCCC[N+](C)(C)CCCc2ccccc2)c1)CCCc1ccccc1.[Br-].[Br-].[Br-] |  | > 128 µg/mL | > 128 µg/mL | 32 µg/mL | > 1280 µg/mL | 32 µg/mL | > 40
14 | C[N+](C)(CCCCCOc1cc(OCCCCC[N+](C)(C)CCCc2ccccc2)cc(OCCCCC[N+](C)(C)CCCc2ccccc2)c1)CCCc1ccccc1.[Br-].[Br-].[Br-] |  | 16 µg/mL | 8 µg/mL | 1 µg/mL | > 1280 µg/mL | 1 µg/mL | > 1280
15 | C[N+](C)(CCCCCOc1ccccc1)CCCCOc1cc(OCCCC[N+](C)(C)CCCCCOc2ccccc2)cc(OCCCC[N+](C)(C)CCCCCOc2ccccc2)c1.[Br-].[Br-].[Br-] |  | 16 µg/mL | 16 µg/mL | 1 µg/mL | > 1280 µg/mL | 2 µg/mL | > 1280
16 | CCCCCCCCCC[N+](C)(C)CCCCCOc1cc(OCCCCC[N+](C)(C)CCCCCCCCCC)cc(OCCCCC[N+](C)(C)CCCCCCCCCC)c1.[Br-].[Br-].[Br-] |  | 4 µg/mL | 4 µg/mL | 4 µg/mL | 16 µg/mL | 2 µg/mL | 4
17 | C[N+](C)(CCCCOc1cc(OCCCC[N+](C)(C)CCCc2ccccc2)cc(OCCCC[N+](C)(C)CCCc2ccccc2)c1)CCCc1ccccc1.[Br-].[Br-].[Br-] |  | > 128 µg/mL | > 128 µg/mL | 8 µg/mL | > 1280 µg/mL | 16 µg/mL | > 160
18 | C[N+](C)(CCCCOc1ccccc1)CCCOc1cc(OCCC[N+](C)(C)CCCCOc2ccccc2)cc(OCCC[N+](C)(C)CCCCOc2ccccc2)c1.[Br-].[Br-].[Br-] |  | 128 µg/mL | 128 µg/mL | 32 µg/mL | > 1280 µg/mL | 64 µg/mL | > 40
19 | CCCCCCCCCC[N+](C)(C)CCCCOc1cc(OCCCC[N+](C)(C)CCCCCCCCCC)cc(OCCCC[N+](C)(C)CCCCCCCCCC)c1.[Br-].[Br-].[Br-] |  | 4 µg/mL | 4 µg/mL | 4 µg/mL | 34 µg/mL | 0.5 µg/mL | 8.5
20 | C[N+](C)(CCCCCOc1ccccc1)CCCOc1cc(OCCC[N+](C)(C)CCCCCOc2ccccc2)cc(OCCC[N+](C)(C)CCCCCOc2ccccc2)c1.[Br-].[Br-].[Br-] |  | 32 µg/mL | 32 µg/mL | 4 µg/mL | > 1280 µg/mL | 8 µg/mL | > 320
21 | C[N+](C)(CCCCOc1cc(OCCCC[N+](C)(C)CCCOc2ccccc2)cc(OCCCC[N+](C)(C)CCCOc2ccccc2)c1)CCCOc1ccccc1.[Br-].[Br-].[Br-] |  | 64 µg/mL | > 128 µg/mL | 4 µg/mL | > 1280 µg/mL | 2 µg/mL | > 320
22 | C[N+](C)(CCCCc1ccccc1)CCCOc1cc(OCCC[N+](C)(C)CCCCc2ccccc2)cc(OCCC[N+](C)(C)CCCCc2ccccc2)c1.[Br-].[Br-].[Br-] |  | 128 µg/mL | 128 µg/mL | 8 µg/mL | > 1280 µg/mL | 16 µg/mL | > 160
23 | CCCCCCCCCC[N+](C)(C)CCCOc1cc(OCCC[N+](C)(C)CCCCCCCCCC)cc(OCCC[N+](C)(C)CCCCCCCCCC)c1.[Br-].[Br-].[Br-] |  | 4 µg/mL | 4 µg/mL | 1 µg/mL | 54 µg/mL | 1 µg/mL | 54
24 | C[N+](C)(CCCCOc1ccccc1)CCCCOc1cc(OCCCC[N+](C)(C)CCCCOc2ccccc2)cc(OCCCC[N+](C)(C)CCCCOc2ccccc2)c1.[Br-].[Br-].[Br-] |  | 32 µg/mL | 64 µg/mL | 2 µg/mL | > 1280 µg/mL | 4 µg/mL | > 640
